{"source": "patent US20260098054A1", "about": "“COMPOSITIONS AND METHODS FOR CONSTRUCTING CONJUGATES” (priority 2022, published 2026)", "key": {"U87-MG cells": {"system": "U87-MG cells", "assay": "In vitro cytotoxicity assay (CCK-8) in U87-MG cells", "details": "U87-MG (high αvβ3 integrin), 48 h incubation, fold of free DM1 activity", "experimental": "(§1) Cells were plated in 96-well microplates at a density of 5×10^4 cells/well for 24 h for attachment, 90 μl of DMEM with 10% FBS and 100 U/mL P/Swas added to each well. PDCs 1-6 were first dissolved in DMSO respectively, at a concentration of 10 mM, followed by serial dilution in culture medium to achieve different concentrations as specified. For U87-MG cells, the concentration of compounds administered ranged from 1.37 to 27000 nM. While for HEK-293T cells, the concentration of compounds administered ranged from 0.03 to 1000 nM. The cells treated with the compounds were then incubated for 48 h. 10 μl of CCK-8 solution was then added to each well and incubated for 30 min. Absorbance was acquired at 450 nm using a spectrophotometer (Synergy HTX, Biotek). Three experiments were performed separately in triplicates and the data was processed using the GraphPad Prism (GraphPad Software, La Jolla, CA).\n(§2) Next, the biological activities of these conjugates were evaluated.\nThen, the in vitro antitumor efficacy of PDCs 1-6 was examined by CCK-8 assay (FIG. 5B). The IC50 of free DM1 and its conjugates were compared internally within the same cell line, to determine the potency of the six compounds."}, "[1]": {"assay": "Stability test of conjugates (checked by LCMS)", "assay_type": "physicochemical", "details": "5% ACN in H2O or 5% ACN in PBS pH 7.4, 0.5 mM, room temperature or 37° C., LCMS after 24 h and 48 h", "experimental": "FIGS. 5A-5C are line graphs of stability test and biological evaluations of PDC 1-6. […] The compound was checked by LCMS after 24 h and 48 h."}, "HEK-293T cells": {"system": "HEK-293T cells", "assay": "In vitro cytotoxicity assay (CCK-8) in HEK-293T cells", "details": "for cytotoxicity in words (ranking among the six compounds): HEK-293T, CCK-8, PDCs 1-6", "experimental": "as §1, §2\nThe peptide-drug conjugates were tested on the negative control cell line."}, "αvβ3 integrin": {"molecular_target": "αvβ3 integrin (Homo sapiens, UniProt P05106+P06756)", "sequence (P06756 31-1048)": "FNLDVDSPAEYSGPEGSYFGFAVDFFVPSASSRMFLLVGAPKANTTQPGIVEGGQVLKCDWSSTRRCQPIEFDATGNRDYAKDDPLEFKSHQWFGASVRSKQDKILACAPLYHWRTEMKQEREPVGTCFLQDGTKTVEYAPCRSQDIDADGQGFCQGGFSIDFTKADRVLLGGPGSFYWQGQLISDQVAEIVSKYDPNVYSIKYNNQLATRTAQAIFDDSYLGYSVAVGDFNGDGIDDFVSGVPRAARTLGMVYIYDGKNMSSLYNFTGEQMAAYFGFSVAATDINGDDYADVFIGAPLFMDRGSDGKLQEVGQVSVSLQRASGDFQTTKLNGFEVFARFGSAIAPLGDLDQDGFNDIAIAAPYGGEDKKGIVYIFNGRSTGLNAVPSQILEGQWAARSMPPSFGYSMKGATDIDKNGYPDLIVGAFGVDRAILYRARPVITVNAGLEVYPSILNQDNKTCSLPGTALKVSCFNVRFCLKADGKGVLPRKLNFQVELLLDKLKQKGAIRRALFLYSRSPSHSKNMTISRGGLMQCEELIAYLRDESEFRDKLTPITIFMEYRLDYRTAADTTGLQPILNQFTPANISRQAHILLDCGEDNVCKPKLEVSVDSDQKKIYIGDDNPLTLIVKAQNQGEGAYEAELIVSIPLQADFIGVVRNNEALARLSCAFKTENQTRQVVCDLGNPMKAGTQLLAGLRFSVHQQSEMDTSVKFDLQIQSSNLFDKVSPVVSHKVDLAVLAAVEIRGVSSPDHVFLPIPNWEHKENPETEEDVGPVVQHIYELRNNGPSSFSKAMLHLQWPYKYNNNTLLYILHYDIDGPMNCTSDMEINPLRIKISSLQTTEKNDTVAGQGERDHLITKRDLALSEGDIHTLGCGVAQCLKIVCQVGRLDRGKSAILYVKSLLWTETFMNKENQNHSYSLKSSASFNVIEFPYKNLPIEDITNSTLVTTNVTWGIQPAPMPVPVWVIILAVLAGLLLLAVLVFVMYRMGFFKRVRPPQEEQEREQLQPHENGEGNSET", "sequence (P05106 27-788)": "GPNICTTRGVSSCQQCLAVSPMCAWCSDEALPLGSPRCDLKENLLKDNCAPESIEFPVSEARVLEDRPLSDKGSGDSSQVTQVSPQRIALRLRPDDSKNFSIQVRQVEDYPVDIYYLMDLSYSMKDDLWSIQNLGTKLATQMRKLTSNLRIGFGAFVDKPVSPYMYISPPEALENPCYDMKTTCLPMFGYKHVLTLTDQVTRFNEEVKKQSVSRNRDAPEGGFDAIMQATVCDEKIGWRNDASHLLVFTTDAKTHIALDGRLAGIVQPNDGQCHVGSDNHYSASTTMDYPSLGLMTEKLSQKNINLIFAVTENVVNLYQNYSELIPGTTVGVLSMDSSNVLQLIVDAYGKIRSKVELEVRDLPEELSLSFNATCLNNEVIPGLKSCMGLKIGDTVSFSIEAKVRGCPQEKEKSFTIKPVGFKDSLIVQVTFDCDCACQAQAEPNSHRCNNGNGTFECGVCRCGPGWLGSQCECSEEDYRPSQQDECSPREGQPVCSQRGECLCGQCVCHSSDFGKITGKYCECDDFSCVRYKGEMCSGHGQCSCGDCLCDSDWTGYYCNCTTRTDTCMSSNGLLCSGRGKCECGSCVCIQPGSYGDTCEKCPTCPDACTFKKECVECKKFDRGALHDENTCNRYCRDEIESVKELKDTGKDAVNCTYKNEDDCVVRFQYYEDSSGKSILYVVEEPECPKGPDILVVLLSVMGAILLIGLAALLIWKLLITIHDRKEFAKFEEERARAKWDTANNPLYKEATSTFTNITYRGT", "details": "Kapp, et al., Sci. Rep. 2017; cited from earlier work"}, "integrin αvβ3": {"molecular_target": "integrin αvβ3 (UniProt P06756 31-1048; P05106 27-788)", "sequence (P06756 31-1048, chain 1 of 2)": "as the sequence (P06756 31-1048) above", "sequence (P05106 27-788, chain 2 of 2)": "as the sequence (P05106 27-788) above", "assay": "cell-based or functional assay"}}, "note": "Non-standard residues stand in square brackets, D forms with d. Pen = CC(C)(S)[C@H](N)C(=O)O"}
{"molecule": "COc1cc2cc(c1Cl)N(C)C(=O)C[C@H](OC(=O)[C@H](C)N(C)C(=O)CCSc1c3ccccc3cn1CCCC[C@@H]1NC(=O)[C@@H](Cc3ccccc3)NC(=O)[C@H](CC(=O)O)NC(=O)CNC(=O)[C@H](CCCNC(=N)N)NC1=O)[C@]1(C)O[C@H]1[C@H](C)[C@@H]1C[C@@](O)(NC(=O)O1)[C@H](OC)/C=C/C=C(\\C)C2", "note": "[PDC-1, OPA-c [RGDfK]-DM1]", "values": [{"measurement": "cytotoxicity compared to free DM1 (IC50 compared within the same cell line)", "setting": "U87-MG cells", "result": 0.85, "unit": "fold"}]}
{"molecule": "COc1cc2cc(c1Cl)N(C)C(=O)C[C@H](OC(=O)[C@H](C)N(C)C(=O)CCSSCCn1cc3ccccc3c1SC(C)(C)[C@@H]1NC(=O)[C@@H](Cc3ccccc3)NC(=O)[C@H](CC(=O)O)NC(=O)CNC(=O)[C@H](CCCNC(=N)N)NC1=O)[C@]1(C)O[C@H]1[C@H](C)[C@@H]1C[C@@](O)(NC(=O)O1)[C@H](OC)/C=C/C=C(\\C)C2", "note": "[PDC-3]", "values": [{"measurement": "cytotoxicity compared to free DM1 (IC50 compared within the same cell line)", "setting": "U87-MG cells", "result": 5.95, "unit": "fold"}, {"measurement": "stability compared to PDC-1 (FIG. 5A)", "setting": "[1]", "result": "improved stability"}, {"measurement": "cytotoxicity as fold of the activity of DM1", "setting": "HEK-293T cells; HEK-293T (low αvβ3 integrin, negative control), 48 h incubation, CCK-8", "result": 0.31, "unit": "fold"}, {"measurement": "cytotoxicity in words (ranking among the six compounds)", "setting": "HEK-293T cells", "result": "relatively better activity among the six compounds"}]}
{"molecule": "COc1cc2cc(c1Cl)N(C)C(=O)C[C@H](OC(=O)[C@H](C)N(C)C(=O)CCSc1c3ccccc3cn1CCCC[C@@H]1NC(=O)[C@@H](Cc3ccccc3)NC(=O)[C@H](CCC(=O)O)NC(=O)CNC(=O)[C@H](CCCNC(=N)N)NC1=O)[C@]1(C)O[C@H]1[C@H](C)[C@@H]1C[C@@](O)(NC(=O)O1)[C@H](OC)/C=C/C=C(\\C)C2", "note": "[PDC-5]", "values": [{"measurement": "cytotoxicity compared to free DM1 (IC50 compared within the same cell line)", "setting": "U87-MG cells", "result": 0.49, "unit": "fold"}]}
{"molecule": "COc1cc2cc(c1Cl)N(C)C(=O)C[C@H](OC(=O)[C@H](C)N(C)C(=O)CCSSCCn1cc3ccccc3c1SC(C)(C)[C@@H]1NC(=O)[C@@H](Cc3ccccc3)NC(=O)[C@H](CCC(=O)O)NC(=O)CNC(=O)[C@H](CCCNC(=N)N)NC1=O)[C@]1(C)O[C@H]1[C@H](C)[C@@H]1C[C@@](O)(NC(=O)O1)[C@H](OC)/C=C/C=C(\\C)C2", "note": "[PDC-6]", "values": [{"measurement": "cytotoxicity compared to free DM1 (IC50 compared within the same cell line)", "setting": "U87-MG cells", "result": 0.48, "unit": "fold"}, {"measurement": "cytotoxicity in words (ranking among the six compounds)", "setting": "HEK-293T cells", "result": "relatively better activity among the six compounds"}]}
{"molecule": "c [c [RGDfK]]", "values": [{"measurement": "increase of binding affinity compared to the linear RGD tripeptide", "setting": "αvβ3 integrin", "result": 39, "unit": "fold"}]}
{"molecule": "c [c [RGDfV]]", "values": [{"measurement": "increase of binding affinity compared to the linear RGD tripeptide", "setting": "αvβ3 integrin", "result": 58, "unit": "fold"}]}
{"molecule": "cyclo(RGD[dF]K(Pen)) (not fully specified)", "note": "[PDC-4]", "values": [{"measurement": "cytotoxicity (CCK-8 assay) in U87-MG cells, fold against free DM1", "setting": "integrin αvβ3", "result": 1.29, "unit": "fold"}, {"measurement": "cytotoxicity (CCK-8 assay) in the αvβ3-negative cell line HEK-293T, fold of the activity of DM1", "setting": "integrin αvβ3", "result": 0.16, "unit": "fold"}]}
